Measured values as given in US8592435B2, “Nitrogen-containing six-membered aromatic ring derivatives and pharmaceutical products containing the same” (Daiichi Sankyo Company, Limited, priority 2007, dated 2013).

What was measured:
chemokine receptor CCR3 = target: T1, chemokine receptor CCR3 (Homo sapiens, UniProt P51677); test: Affinity to chemokine receptor CCR3; assay type: binding; settings: at a concentration of 10 μM
T1 sequence (P51677 1-355): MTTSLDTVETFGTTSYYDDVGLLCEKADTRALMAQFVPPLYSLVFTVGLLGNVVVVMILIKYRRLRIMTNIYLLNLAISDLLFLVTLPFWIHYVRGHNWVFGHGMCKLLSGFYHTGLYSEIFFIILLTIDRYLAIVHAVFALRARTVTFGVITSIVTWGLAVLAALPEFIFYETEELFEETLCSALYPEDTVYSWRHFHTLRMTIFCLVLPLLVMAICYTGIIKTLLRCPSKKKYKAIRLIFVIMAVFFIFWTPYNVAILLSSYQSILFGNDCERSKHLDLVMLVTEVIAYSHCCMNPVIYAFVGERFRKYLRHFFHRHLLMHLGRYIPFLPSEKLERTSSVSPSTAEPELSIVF
Description: Although the compounds of the present invention are novel compounds, compounds having a partly similar skeleton are described, for example, in Published Japanese Translation of PCT International Application No. 2003-507456, WO 01/79170 and WO 00/23076.

hippocampal neurons = test: Test Example 1: ability to promote axonal outgrowth; assay type: cell-based, Wistar rats; settings: Hippocampal neuron, 216 h; Compound Conc. = 3 μM; % of control; rat hippocampal neurons, day 9; read-out: Promotion of axonal outgrowth (%)
Outline: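 Embryonic day-18 Wistar rat hippocampal neurons were cultured at 37° C, treated with AraC from day 3, and given compound at 3 μM and 0.3 μM on days 3 and 7. On day 9, GAP-43-stained axons were quantified and expressed as % of control; bFGF-based threshold is 120.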

spinal cord neurons = test: Test Example 3: ability to promote the neurite outgrowth of spinal cord neurons; assay type: cell-based, Wistar rats; settings: Compound Conc. = 0.1 μM; % of control, day 3
Method: According to the method of Martin G. Hanson Jr. [J. Neurosci., 1998 Sep. 15; 18(18): 7361-71], the spinal cord region was isolated from 15-day embryos of female Wistar rats and the cells were dispersed using the papain dissociation system. Neurons were collected using 6.8% Metrizamide density gradient and were suspended in 2% FBS+Leibovitz's −15 medium so that the density of the cells will be 2×10^3 cells/well/200 μL. 200 μL of the cell suspension was inoculated on a poly-D-lysine/laminin-coated 96 well plate and the plate was incubated in an incubator at 37° C. Test compounds were added 1 hour after seeding of cells.
On day 3 of the incubation period, neurons were stained with Calcein-AM and the lengths of neurites were determined using IN Cell Analyzer (GE Healthcare Bioscience).
The ability (%) of each test compound to promote neurite outgrowth was calculated from the following equation: The ability to promote neurite outgrowth (%)=[(measurement with a compound of interest)/(measurement of control)]×100
Example Compounds 65, 71, 74, 92, 130 and 135 were used as test compounds and were each added at a concentration of 0.1 μM.
The results are shown in Table 27. bFGF gives a measurement of about 130 in this test.

[1] = tested on: critical limb ischemia model (left femoral artery excised); test: Test Example 4: lower limb ischemia (critical limb ischemia) model in mice; assay type: in vivo, Balb/c mice; settings: oral once daily 0.1 or 1.0 mg/kg for 10 days from femoral artery excision, vs Vehicle
Method: According to the method of Ichiro Masaki [Circ Res. 90; 966-973 (2002)], the left femoral artery of Balb/c mice was excised to establish a model of critical limb ischemia (n=29 to 30).
Test compounds used were Example Compounds 65, 92, 114, 130, 135 and 136, each of which was orally administered once daily at a dose of 0.1 mg/kg or 1.0 mg/kg for 10 days starting from the day of femoral artery excision.
The results are shown in FIGS. 1 to 6 in which FIGS. 1, 2, 3, 4, 5 and 6 show the results of Example Compounds 65, 92, 114, 130, 135 and 136, respectively.
In the figures, a thick solid line indicates a Vehicle group, a thin dotted line indicates a group administered 0.1 mg/kg/day of each compound, and a thin solid line indicates a group administered 1.0 mg/kg/day of each compound.
*: P<0.05, **: P<0.01, ***: P<0.001 vs Vehicle by Wilcoxon's test.

[2] = tested on: spinal cord injury (SCI) model; test: Test Example 7: spinal cord injury (SCI) model in rats; assay type: in vivo, Slc: SD rats; settings: 1 mg/kg through the tail vein once daily for 10 days, once a week until 5 weeks after surgery
Description: According to the method of Venkata Ramesh Dasari et al. [J Neurotrauma. 2007 February; 24(2):391-410], 9-week-old female Slc: SD rats were used. Animals were anesthetized with pentobarbital and incised along the dorsal midline. After the spinal column was exposed by dorsal midline incision, the 9th thoracic vertebral arch was removed with bone scissors, paying attention not to damage the dura mater. The upper and lower bones were held in place to position the exposed spinal site just under the impactor device (where impact is applied) and then a 200-kdyn force was applied to the site. Tonic extension of the lower limbs by the spinal cord injury was checked.
The test compound used was Example Compound 65, which was administered at a dose of 1 mg/kg. Specifically, the compound was administered through the tail vein once daily for 10 days, starting from 90 min after the surgery. The motor function of lower limb was evaluated by BBB score (Basso D M, Beattie M S, Bresnahan J C: J Neurotrauma. 1995; 12:1-21) once a week until 5 weeks after surgery.

Cc1nc(OCC(=O)N(C)C2CCN(Cc3ccccc3)CC2)nc(C)c1N [Compound 65, 2-(5-amino-4,6-dimethylpyrimidine-2-yloxy)-N-(1-benzylpiperidine-4-yl)-N-methylacetamide]
affinity to chemokine receptor CCR3 (chemokine receptor CCR3): 0.0% | activity at 3 µM (hippocampal neurons): 134% | Promotion of spinal cord neurite outgrowth (%) (spinal cord neurons): 135% | survival rate of lower limb [1]: increased survival rate | motor function of lower limb (BBB score) [2]: highly effective in ameliorating spinal cord injury
